Measured values from US4605662A, “1-substituted pyrrolizidine derivatives and antiarrhythmic use thereof” (Suntory Ltd., priority 1982, dated 1986).

Legend:
[1] = test system: ventricular flutter and fibrillation; test: Protection against chloroform-induced ventricular arrhythmias in mice (Lawson method), subcutaneous; assay type: in vivo, ddy strain); conditions: 30 min before chloroform inhalation, male ddy mice; for ED50 / ED20 / ED40: Mus musculus, sc; for ED50: read-out: ED50 (95% confidence limits), antiarrhythmic activity; for ED20: read-out: ED20, antiarrhythmic activity; for ED40: read-out: ED40, antiarrhythmic activity
Description: In accordance with the method described by J. W. Lawson (Journal of Pharmacology and Experimental Therapeutics, vol. 160, pp. 22, 1968), male mice of the ddy strain weighing 16 to 30 g were allowed to inhale chloroform to induce ventricular arrhythmias. At the time when they ceased to breathe, the electrocardiogram of each animal was recorded to observe the ventricular flutter and fibrillation. The abnormalities of the ventricles observed in these animals can be prevented by pretreatment with substances which have antiarrhythmic activity. The compounds of this invention were subcutaneously injected in 4-5 different doses to groups of 29 to 40 mice. Thirty minutes later, the mice were subjected to inhalation of chloroform to induce arrhythmias, and the protection by each dose against the ventricular flutter and fibrillation were expressed as percent. […]

[2] = 50% lethal dose (LD50) by Up and Down Method in mice, and therapeutic index; assay type: in vivo; conditions: mouse, in vivo; Up and Down Method; male ddy mice 18 to 22 g
From the text: (§1) The 50% lethal doses (median lethal doses, LD50) were computed by the "Up and Down Method" (Pharmacological Experiment, compiled by Takagi and Ozawa, pp. 204, Nanzando, 1972) using male mice of the ddy strain weighing 18 to 22 g, and the ratios of the LD50 to ED50 values were expressed as the therapuetic indices, as presented in Table 1.

[3] = test system: male mice of the ddy strain; test: as above; assay type: in vivo; conditions: LD50/ED50
From the text: as §1

Row | SMILES | ED50 ([1]; Litchfield and Wilcoxon) [mg/kg] | LD50 [2] [mg/kg] | ED20 [1] [mg/kg] | ED40 [1] [mg/kg] | Therapeutic index (ratio of LD50 to ED50) [3] | ED50 (95% confidence limits), antiarrhythmic activity ([1]; Litchfield and Wilcoxon) [mg/kg]
1 | COc1ccccc1NC(=O)[C@@H]1CCN2CCC[C@@H]12 (relative stereo) [II] | 74 | > 500 | – | – | – | –
2 | Cc1ccc(C)c(NC(=O)[C@@H]2CCN3CCC[C@@H]23)c1 (relative stereo) [VIII] | > 100 | > 500 | 100 | – | – | –
3 | Cc1ccccc1NC(=O)[C@@H]1CCN2CCC[C@@H]12 (relative stereo) | > 100 | > 500 | 100 | – | – | –
4 | Cc1cccc(NC(=O)[C@@H]2CCN3CCC[C@@H]23)c1C (relative stereo) [VII] | > 100 | > 500 | 100 | – | – | –
5 | Cc1cc(C)c(NC(=O)[C@@H]2CCN3CCC[C@@H]23)c(C)c1 (relative stereo) [XV] | > 100 | 394 | 100 | – | – | –
6 | COc1ccc(NC(=O)[C@@H]2CCN3CCC[C@@H]23)cc1 (relative stereo) [IV] | > 100 | > 500 | 100 | – | – | –
7 | COc1cccc(NC(=O)[C@@H]2CCN3CCC[C@@H]23)c1 (relative stereo) [III] | > 100 | > 500 | – | 100 | – | –
8 | O=C(Nc1c(Br)cccc1Br)[C@@H]1CCN2CCC[C@@H]12 (relative stereo) [XIV] | 43 | 468 | – | – | 10.88 | –
9 | Cc1cc(C)cc(NC(=O)[C@@H]2CCN3CCC[C@@H]23)c1 (relative stereo) [X] | 100 | > 500 | > 100 | – | – | –
10 | O=C(Nc1ccccc1Br)[C@@H]1CCN2CCC[C@@H]12 (relative stereo) [VI] | > 100 | > 500 | – | 100 | – | –
11 | Cc1cccc(C)c1NC(=O)[C@@H]1CCN2CCC[C@@H]12 (relative stereo) [IX] | 29 | 447 | – | – | 15.4 | –
12 | CCc1cccc(CC)c1NC(=O)[C@@H]1CCN2CCC[C@@H]12 (relative stereo) [XI] | 38 | 244 | – | – | 6.24 | –
13 | O=C(Nc1ccccc1Cl)[C@@H]1CCN2CCC[C@@H]12 (relative stereo) [V] | > 100 | 263 | – | – | – | 100
14 | COc1ccc(OC)c(NC(=O)[C@@H]2CCN3CCC[C@@H]23)c1 (relative stereo) [XII] | > 100 | > 500 | – | 100 | – | –
15 | O=C(Nc1c(Cl)cccc1Cl)[C@@H]1CCN2CCC[C@@H]12 (relative stereo) [XIII] | 38 | 263 | – | – | 6.92 | –
